Source: patent publication EP3315495A1, “N,N' -[…], N,N' -DIAR[…] N,N' -DIARY[…] FOR USE IN TREATMENT AND PREVENTION OF INFLAMMATORY DISEASE” (Universität Innsbruck, priority 2016, dated 2018)
“Also recorded” adds a separate entry of the source. Marks after values point to notes of the source that are not given here.

What follows are compounds tested against T1, sEH (Homo sapiens, UniProt P34913) (assay: not given). Conditions: result in words.
T1 sequence (P34913 1-555): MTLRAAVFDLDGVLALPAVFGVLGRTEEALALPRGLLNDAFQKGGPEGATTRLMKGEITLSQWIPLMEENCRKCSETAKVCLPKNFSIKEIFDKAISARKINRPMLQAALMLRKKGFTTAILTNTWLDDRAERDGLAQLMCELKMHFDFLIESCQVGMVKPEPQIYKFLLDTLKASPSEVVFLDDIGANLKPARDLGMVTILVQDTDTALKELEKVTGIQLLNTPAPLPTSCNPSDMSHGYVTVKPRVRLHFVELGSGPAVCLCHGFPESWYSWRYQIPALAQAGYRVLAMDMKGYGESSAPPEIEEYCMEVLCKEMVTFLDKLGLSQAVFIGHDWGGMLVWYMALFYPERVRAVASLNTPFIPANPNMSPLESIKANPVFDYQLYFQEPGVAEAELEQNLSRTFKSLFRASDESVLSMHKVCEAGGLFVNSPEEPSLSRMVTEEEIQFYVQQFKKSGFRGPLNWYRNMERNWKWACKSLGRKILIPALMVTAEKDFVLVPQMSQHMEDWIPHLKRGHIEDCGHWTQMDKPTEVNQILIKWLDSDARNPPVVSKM

SMILES	Effect on sEH activity
CCn1c(COc2ccc3ccccc3c2)nc2ccccc21 [Compound I12-1, reference compound]	inactive
Cc1cc(OCc2nc3ccccc3s2)ccc1NC(=O)Nc1cccc2ccccc12 [Compound I12-4]	inactive
Cc1cc(OCc2nc3ccccc3s2)ccc1NC(=O)c1cccc(F)c1 [Compound I12-5, reference compound]	inactive
Cc1cc(OCc2nc3ccccc3s2)ccc1NC(=O)COc1ccc(Cl)cc1Cl [Compound I12-6, reference compound]	inactive
CCNC(=O)Nc1ccc(OCc2nc3ccccc3s2)cc1C [Compound I12-7, reference compound]	inactive
CSc1ccc(N/N=C/c2nc3ccccc3s2)cc1 [Compound I12-9, reference compound]	inactive
CC(C)c1ccc(OCc2nc3ccccc3[nH]2)cc1 [Compound I12-10, reference compound]	inactive
Cc1cccc(OCC(=O)Nc2ccc(OCc3nc4ccccc4s3)cc2C)c1 [Compound I12-11, reference compound]	did not show sEH inhibition; also recorded: inactive
Cc1cc(OCc2nc3ccccc3s2)ccc1NC(=O)c1ccc(Cl)cc1 [Compound I12-12, reference compound]	inactive
Cc1cccc(OCc2nc3ccccc3s2)c1C [Compound I12-13, reference compound]	inactive

These compounds were tested against T2, FLAP (Homo sapiens, UniProt P20292) (assay: not given). Conditions: active = inhibition of product formation in cells without 5-LOX activity in the cell-free assay.
T2 sequence (P20292 1-161): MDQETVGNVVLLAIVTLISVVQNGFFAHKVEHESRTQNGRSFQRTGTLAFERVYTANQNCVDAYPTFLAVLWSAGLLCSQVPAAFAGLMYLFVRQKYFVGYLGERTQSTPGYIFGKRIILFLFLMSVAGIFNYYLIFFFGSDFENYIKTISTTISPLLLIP

SMILES	Effect on FLAP activity
CCn1c(COc2ccc3ccccc3c2)nc2ccccc21 [Compound I12-1, reference compound]	inactive
Cc1cc(OCc2nc3ccccc3s2)ccc1NC(=O)NC1CCCCC1 [Compound I12-2, N-[4-(2-benzothiazolylmethoxy)-2-methylphenyl]-N'-cyclohexyl-urea, reference compound]	did not show an effect; also recorded: inactive
Cc1cccc(NC(=O)Nc2ccc(OCc3nc4ccccc4s3)cc2C)c1 [Compound I12-3]	active
Cc1cc(OCc2nc3ccccc3s2)ccc1NC(=O)Nc1cccc2ccccc12 [Compound I12-4]	active
Cc1cc(OCc2nc3ccccc3s2)ccc1NC(=O)c1cccc(F)c1 [Compound I12-5, reference compound]	inactive
Cc1cc(OCc2nc3ccccc3s2)ccc1NC(=O)COc1ccc(Cl)cc1Cl [Compound I12-6, reference compound]	inactive
CCNC(=O)Nc1ccc(OCc2nc3ccccc3s2)cc1C [Compound I12-7, reference compound]	inactive
COc1cc(/C=N/NC(=O)c2ccc(CSc3nc4ccccc4s3)o2)cc(Br)c1O [Compound I12-8, reference compound]	inactive
CSc1ccc(N/N=C/c2nc3ccccc3s2)cc1 [Compound I12-9, reference compound]	inactive
CC(C)c1ccc(OCc2nc3ccccc3[nH]2)cc1 [Compound I12-10, reference compound]	inactive
Cc1cccc(OCC(=O)Nc2ccc(OCc3nc4ccccc4s3)cc2C)c1 [Compound I12-11, reference compound]	active
Cc1cc(OCc2nc3ccccc3s2)ccc1NC(=O)c1ccc(Cl)cc1 [Compound I12-12, reference compound]	inactive
Cc1cccc(OCc2nc3ccccc3s2)c1C [Compound I12-13, reference compound]	inactive
COc1cccc(NC(=O)Nc2ccc(CCc3nc4ccccc4[nH]3)cc2)c1 [Compound L1]	inactive
O=C(Nc1ccc(CCc2nc3ccccc3[nH]2)cc1)Nc1cccc(Cl)c1 [Compound L2]	inactive
O=C(Nc1ccccc1)Nc1ccc(CCc2nc3ccccc3[nH]2)cc1 [Compound L3]	inactive
O=C(Nc1ccc(Cl)cc1)Nc1ccc(CCc2nc3ccccc3[nH]2)cc1 [Compound L4]	inactive
COc1ccc(NC(=O)Nc2ccc(CCc3nc4ccccc4[nH]3)cc2)cc1 [Compound L5]	inactive
O=C(Nc1ccc(F)cc1)Nc1ccc(CCc2nc3ccccc3[nH]2)cc1 [Compound L6]	inactive
Cn1c(CCc2ccc(NC(=O)Nc3cccc(Cl)c3)cc2)nc2ccccc21 [Compound L8]	inactive
O=C(Nc1ccc(OCc2nc3ccccc3o2)cc1)Nc1ccc(Cl)c(Cl)c1 [TS04]	inactive

Each compound was assayed on 5-LOX product formation in PMNL (assay: 5-LOX product formation in PMNL stimulated with A23187 (cell-based)). Conditions: Homo sapiens, PMNL; at 1 µM; read-out: Effect on 5-LOX product formation in PMNL, % inhibition.
Set-up: species or system human
Method: Briefly, first a cell-based assay allows to determine the inhibition of the 5-LOX product biosynthesis. The cell suspension contained human neutrophils (PMNL) or monocytes, wherein the cells were isolated from buffy coats obtained from healthy donors pooled by gender. An aliquot cell suspension was incubated with the candidate compound for 15 min at 37 °C. The cells are treated with calcium ionophore A23187 to stimulate 5-LOX product formation for further 10 min (37 °C), optionally in presence of various concentrations of AA. The reaction was stopped with 1 mL methanol on ice.
In both assays, product quantification was conducted with RP-HPLC and UV detection after solid phase extraction and addition of 200 ng prostaglandin B1 as internal standard.

SMILES	inhibition at 1 µM
Cc1cccc(NC(=O)Nc2ccc(OCc3nc4ccccc4s3)cc2C)c1 [Compound I12-3]	100%
Cc1cc(OCc2nc3ccccc3s2)ccc1NC(=O)Nc1cccc2ccccc12 [Compound I12-4]	70%
Cc1cccc(OCC(=O)Nc2ccc(OCc3nc4ccccc4s3)cc2C)c1 [Compound I12-11, reference compound]	97%
Cc1cc(OCc2nc3ccccc3o2)ccc1NC(=O)Nc1ccc(Cl)c(Cl)c1 [SE04, N-[4-(2-Benzoxazolylmethoxy)-2-methylphenyl]-N'-(3,4-dichlorophenyl)-urea]	~85%

Same assay, conditions: Homo sapiens, PMNL; read-out: Effect on 5-LOX product formation in PMNL, IC50

SMILES	IC50
Cc1cc(OCc2nc3ccccc3[nH]2)ccc1NC(=O)Nc1ccc(Cl)c(Cl)c1 [EZ14, N-[4-(1H-Benzimidazol-2-ylmethoxy)-2-methylphenyl]-N'-(3,4-dichlorophenyl)-urea]	770 nM

Same assay, conditions: result in words

SMILES	Effect on 5-LOX product formation in PMNL
CCn1c(COc2ccc3ccccc3c2)nc2ccccc21 [Compound I12-1, reference compound]	inactive
Cc1cc(OCc2nc3ccccc3s2)ccc1NC(=O)NC1CCCCC1 [Compound I12-2, N-[4-(2-benzothiazolylmethoxy)-2-methylphenyl]-N'-cyclohexyl-urea, reference compound]	did not show an effect; also recorded: inactive
Cc1cc(OCc2nc3ccccc3s2)ccc1NC(=O)c1cccc(F)c1 [Compound I12-5, reference compound]	inactive
Cc1cc(OCc2nc3ccccc3s2)ccc1NC(=O)COc1ccc(Cl)cc1Cl [Compound I12-6, reference compound]	inactive
CCNC(=O)Nc1ccc(OCc2nc3ccccc3s2)cc1C [Compound I12-7, reference compound]	inactive
COc1cc(/C=N/NC(=O)c2ccc(CSc3nc4ccccc4s3)o2)cc(Br)c1O [Compound I12-8, reference compound]	inactive
CSc1ccc(N/N=C/c2nc3ccccc3s2)cc1 [Compound I12-9, reference compound]	inactive
CC(C)c1ccc(OCc2nc3ccccc3[nH]2)cc1 [Compound I12-10, reference compound]	inactive
Cc1cc(OCc2nc3ccccc3s2)ccc1NC(=O)c1ccc(Cl)cc1 [Compound I12-12, reference compound]	inactive
Cc1cccc(OCc2nc3ccccc3s2)c1C [Compound I12-13, reference compound]	inactive
COc1cccc(NC(=O)Nc2ccc(CCc3nc4ccccc4[nH]3)cc2)c1 [Compound L1]	inactive
O=C(Nc1ccc(CCc2nc3ccccc3[nH]2)cc1)Nc1cccc(Cl)c1 [Compound L2]	inactive
O=C(Nc1ccccc1)Nc1ccc(CCc2nc3ccccc3[nH]2)cc1 [Compound L3]	inactive
O=C(Nc1ccc(Cl)cc1)Nc1ccc(CCc2nc3ccccc3[nH]2)cc1 [Compound L4]	inactive
COc1ccc(NC(=O)Nc2ccc(CCc3nc4ccccc4[nH]3)cc2)cc1 [Compound L5]	inactive
O=C(Nc1ccc(F)cc1)Nc1ccc(CCc2nc3ccccc3[nH]2)cc1 [Compound L6]	inactive
Cn1c(CCc2ccc(NC(=O)Nc3cccc(Cl)c3)cc2)nc2ccccc21 [Compound L8]	inactive
O=C(Nc1ccc(OCc2nc3ccccc3o2)cc1)Nc1ccc(Cl)c(Cl)c1 [TS04]	inactive

What follows are compounds tested against T1, sEH (assay: biochemical). Conditions: not given.

SMILES	IC50
Cc1cc(OCc2nc3ccccc3[nH]2)ccc1NC(=O)Nc1ccc(Cl)c(Cl)c1 [EZ14, N-[4-(1H-Benzimidazol-2-ylmethoxy)-2-methylphenyl]-N'-(3,4-dichlorophenyl)-urea]	55 nM

Same assay, conditions: read-out: Effect on sEH activity, % inhibition

SMILES	inhibition at 0.1 µM	inhibition at 1 µM
Cc1cc(OCc2nc3ccccc3s2)ccc1NC(=O)NC1CCCCC1 [Compound I12-2, N-[4-(2-benzothiazolylmethoxy)-2-methylphenyl]-N'-cyclohexyl-urea, reference compound]	75%	
Cc1cccc(NC(=O)Nc2ccc(OCc3nc4ccccc4s3)cc2C)c1 [Compound I12-3]	55%	
COc1cc(/C=N/NC(=O)c2ccc(CSc3nc4ccccc4s3)o2)cc(Br)c1O [Compound I12-8, reference compound]	30%	
COc1cccc(NC(=O)Nc2ccc(CCc3nc4ccccc4[nH]3)cc2)c1 [Compound L1]	30%	
O=C(Nc1ccc(CCc2nc3ccccc3[nH]2)cc1)Nc1cccc(Cl)c1 [Compound L2]	50%	
O=C(Nc1ccccc1)Nc1ccc(CCc2nc3ccccc3[nH]2)cc1 [Compound L3]	30%	
O=C(Nc1ccc(Cl)cc1)Nc1ccc(CCc2nc3ccccc3[nH]2)cc1 [Compound L4]	78%	
COc1ccc(NC(=O)Nc2ccc(CCc3nc4ccccc4[nH]3)cc2)cc1 [Compound L5]	50%	
O=C(Nc1ccc(F)cc1)Nc1ccc(CCc2nc3ccccc3[nH]2)cc1 [Compound L6]	55%	
Cn1c(CCc2ccc(NC(=O)Nc3cccc(Cl)c3)cc2)nc2ccccc21 [Compound L8]	65%	
Cc1cc(OCc2nc3ccccc3o2)ccc1NC(=O)Nc1ccc(Cl)c(Cl)c1 [SE04, N-[4-(2-Benzoxazolylmethoxy)-2-methylphenyl]-N'-(3,4-dichlorophenyl)-urea]		~87%
O=C(Nc1ccc(OCc2nc3ccccc3o2)cc1)Nc1ccc(Cl)c(Cl)c1 [TS04]		~96%

The compounds below were run on leukotriene mediated peritonitis (assay: Zymosan-induced peritonitis model in mice). Conditions: 1 mg, intraperitoneal, 30 min prior to zymosan.
Type: in vivo, CD1 male mice
Method: Compound I-12 was evaluated in vivo in a peritonitis model in mice. The experimental protocols were approved by the Animal Care Committee of the University of Naples Federico II, in compliance with Italian regulations on protection of animals used for experimental and other scientific purpose (Ministerial Decree 116/92) as well as with the European Economic Community regulations (Official Journal of E.C. L 358/1 12/18/1986); protocol number: 2014/0018760 27th February 2014. CD1 male mice with an age of six to eight weeks were investigated. The leukotriene mediated peritonitis is induced by injection of 1 mg zymosan in 50 µl saline solution. 30 min prior to induction, the candidate compound was applied as intraperitoneal injection in different concentrations as well as DMSO as negative control and positive controls (MK886, zileuton). Results are given in Table 3, wherein […] and LTB 4 levels are measured as well as vascular permeability (VP) and the cell recruitment in the peritoneal cavity (Cell Rec). Table 3: Results from an in vivo study with a mouse peritonitis model
In Table 3, values in percent indicate the percent inhibition in respect to the vehicle control. Statistical significance is determined via ANOVA Bonferroni, wherein * indicates p<0.05; ** indicates p<0.01; *** indicates p<0.001 vs. vehicle. N indicates the number of investigated mice.

SMILES	Cell Rec (cell recruitment in the peritoneal cavity)	Cell Rec, percent inhibition in respect to the vehicle control	LTB4	LTB4, percent inhibition in respect to the vehicle control	LTC4	LTC4, percent inhibition in respect to the vehicle control
CC(C)c1ccc2c(c1)c(SC(C)(C)C)c(CC(C)(C)C(=O)O)n2Cc1ccc(Cl)cc1 [MK886, reference compound]	4.54±0.326 10^6/ml	41%***	258 ± 48 pg/mL	63%**	24.2 ± 2.98 ng/mL	73%***

Same assay, conditions: 3 mg, intraperitoneal, 30 min prior to zymosan

SMILES	VP (vascular permeability)	VP, percent inhibition in respect to the vehicle control
CC(C)c1ccc2c(c1)c(SC(C)(C)C)c(CC(C)(C)C(=O)O)n2Cc1ccc(Cl)cc1 [MK886, reference compound]	0.303±0.018 abs 610 nm	51%

Same assay, conditions: 10 mg, intraperitoneal, 30 min prior to zymosan

SMILES	LTC4	LTC4, percent inhibition in respect to the vehicle control	VP (vascular permeability)
CC(c1cc2ccccc2s1)N(O)C(N)=O (stereo not drawn) [ZIL, zileuton, reference compound]	56.5 ± 4.58 ng/mL	36%*	0.639±0.104 abs 610 nm
